Laboratory results published in patent US11174223B2, “Compositions, methods, and systems for the synthesis and use of imaging agents” (Lantheus Medical Imaging, Inc., priority 2010, dated 2021).

How the values were obtained:
[1] = Regional myocardial radioactivity concentration by dynamic PET in normal subjects; format: in vivo, human
Description: A human study was performed that determined the quantification of normal pattern of regional myocardial radioactivity concentration of imaging agent-1.
Normal subjects (n=6) were injected with ˜220 MBq of imaging agent-1 intravenously, and dynamic PET images were acquired over 80 min without patient movement. Attenuation corrected images were re-oriented into standard cardiac specific axes, and the maximal regional myocardial uptake was quantified on a sector-by-sector basis using WLCQ software. […] Activity was expressed as Bq/ml.

[2] = Dosimetry in non-human primates to estimate human radiation dosimetry; format: in vivo, cynomolgus monkeys
Description: Dosimetry in non-human primates of imaging agent-1 was examined. Imaging agent-1, which is labeled with ^18F, is a novel norepinephrine transporter (NET) ligand and was a useful radiotracer for mapping the cardiac nerve terminal in vivo using positron emission tomography. A study was performed in four non-human primates to estimate human radiation dosimetry.
In this study two male and two female cynomolgus monkeys were imaged using a Concord Focus 220 MicroPET scanner for whole body ^18F distribution following 4 to 5 mCi (0.65 to 1.6 μg) single intravenous injection of imaging agent-1. Under isoflurane anesthesia, images of the animals from head to lower abdomen were acquired in 5 segments over four and half hours following injection. Radioactivity in identifiable organs and the remainder of the body was determined as a function of time using region-of-interest analysis. The total number of disintegrations per unit injected dose was determined by normalizing by the injected radioactivity and integrating over time the data for radioactivity versus time. Using the OLINDA/EXM software (Organ Level Internal Dose Assessment/EXponential Modeling Software, published by Vanderbilt University), the normalized number of ^18F disintegrations for each organ was combined with the energy released by each disintegration, and using the MIRD schema, estimates were made of the fraction of the total released energy that was retained in each source organ and the contribution from each source organ to the energy deposited in surrounding target organs for an adult human. Dividing the total fractional energy deposited in each organ by the corresponding organ mass yielded the radiation dose for that organ per unit (mCi or MBq) injected dose.

[3] = target: T1, norepinephrine transporter (NET) (Homo sapiens, UniProt P23975); experiment: Uptake and uptake kinetics in SH-SY5Y human neuroblastoma cells; format: cell-based
T1 construct: endogenous in cells; host or cells: SH-SY5Y
T1 sequence (P23975 whole entry): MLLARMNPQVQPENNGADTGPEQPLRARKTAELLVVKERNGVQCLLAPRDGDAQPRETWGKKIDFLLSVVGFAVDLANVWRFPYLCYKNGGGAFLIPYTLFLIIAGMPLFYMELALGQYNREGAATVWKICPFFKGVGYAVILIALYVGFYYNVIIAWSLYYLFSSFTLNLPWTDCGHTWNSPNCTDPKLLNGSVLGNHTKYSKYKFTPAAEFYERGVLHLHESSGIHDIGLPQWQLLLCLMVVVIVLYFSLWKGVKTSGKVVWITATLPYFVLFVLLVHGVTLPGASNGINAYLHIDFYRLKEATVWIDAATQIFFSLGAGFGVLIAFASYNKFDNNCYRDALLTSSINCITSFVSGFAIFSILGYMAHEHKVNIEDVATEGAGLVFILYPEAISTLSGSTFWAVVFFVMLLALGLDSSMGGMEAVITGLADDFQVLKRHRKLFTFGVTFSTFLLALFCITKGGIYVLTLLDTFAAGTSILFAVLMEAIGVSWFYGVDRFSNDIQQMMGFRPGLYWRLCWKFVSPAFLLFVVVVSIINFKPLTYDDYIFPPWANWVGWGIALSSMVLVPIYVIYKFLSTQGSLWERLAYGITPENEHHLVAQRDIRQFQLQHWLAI
Description: (§1) Imaging agent-1 was designed as a substrate for the norepinephrine transporter (NET) to image the cardiac sympathetic nervous system. […] These values were similar to that of MIBG (2.12±0.26 μM and 4.76±0.78 pmol/min/million cells). In animals, tissue biodistribution of imaging agent-1 was assessed by tissue sampling at 15- and 60-minute following administration. Heart uptake was 2.36±0.16 and 2.17±0.12% injected dose per g tissue (% ID/g) in rats and 0.25±0.03 and 0.28±0.03% ID/g in rabbits. In rabbits, desipramine (1 mg/kg) inhibited heart uptake of imaging agent-1 by 68% and ^123I-MIBG uptake by 55% at 1 hour post dose.

[4] = Tissue biodistribution by tissue sampling in rats; format: in vivo
Description: as §1

[5] = Tissue biodistribution by tissue sampling in rabbits; format: in vivo
Description: as §1

[6] = test system: norepinephrine transporter (NET), uptake 1; experiment: Cardiac imaging in NHPs pretreated with desipramine; format: in vivo, nonhuman primates (NHP); conditions: desipramine 0.5 mg/kg
Description: as §1
Desipramine, a selective uptake 1 inhibitor, was used to block cardiac uptake 1 in rats (10 mg/kg, ip), rabbits (1 mg/kg iv), and NHPs (0.5 mg/kg, iv). 6-hydroxydopamine, a neurotoxin, was injected to induce sympathetic denervation in rats (100 mg/kg ip for 7 days) and rabbits (25 mg/kg iv on day 1, 2, 7, and 8). Imaging agent-1 heart uptake in comparison with MIBG was assessed by tissue sampling at 60 minutes post imaging agent injection. Imaging was also performed with (2-tert-butyl-4-chloro-5-[4-(2-[^18F]fluoroethoxymethyl)-benzyloxy]-2H-pyridazin-3-1.

[7] = Cardiac PET imaging in rabbit model of regional cardiac sympathetic denervation (RCSD) and re-innervation; format: in vivo, rabbits
Description: Rabbit models of RCSD were developed by applying phenol directly on the surface of the left ventricular wall during a sternotomy. Two and twelve weeks following the procedure, imaging agent-1 cardiac PET imaging (˜1.5 mCi, iv) were performed in these rabbits. The myocardial area with radioactivity ≥50% maximum was quantified as innervated region for comparison. To evaluate susceptibility of arrhythmia in rabbits, dofetilide (10 and 40 μg/kg iv, a delayed IKr inhibitor) induced changes were assessed by measuring ECG including heart rate (HR), QTc interval (corrected by Fridericia method), and frequency of arrhythmia.

[8] = target: T2, NET (Homo sapiens, UniProt P23975); experiment: Competition binding assay in cell membranes over-expressing human NET; parameters: expressed in transfected cells
T2 sequence (P23975 whole entry): as above
Description: Imaging agent-1 was designed as a substrate for the norepinephrine transporter (NET) to image the cardiac sympathetic nervous system. […] In animals, tissue biodistribution of imaging agent-1 was assessed by tissue sampling at 15- and 60-minute following administration.
The affinity (Ki) was determined in a competition binding assay by incubating ^19F-imaging agent-1, a cold analog of imaging agent-1, or NE with ^3H-desmethylimipramine in cell membrane overexpressing human NET. […] In SK—NSH cells, the uptake kinetics (Km and Vmax) were evaluated by measuring NET mediated uptake of imaging agent-1 or NE at various concentrations. Imaging agent-1 cardiac image quality was evaluated by PET imaging (˜1.5 mCi, i.v.) in rabbits in the presence and absence of desipramine (1 mg/kg).

[9] = target: T2, NET; experiment: Effect of heart failure medications on NET mediated imaging agent-1 uptake in SK-N-SH cells; format: cell-based; parameters: endogenous in cells; host or cells: SK-N-SH; conditions: 1 million cells, 60 minutes
[10] = estimated from cynomolgus monkey PET
[11] = 15-minute following administration
[12] = 60-minute following administration

With N=C(N)NCc1ccc(OCCC[18F])c(Br)c1 [imaging agent-1, 1-{3-Bromo-4-[3-[^18F]fluoropropoxy]benzyl}guanidine] the “Clearance of radiotracer from blood” value ([1]; normal subjects n=6, ~220 MBq iv) was “cleared quickly from the blood”, the “Time at which myocardial activity reached a plateau” value ([1]; post injection) was roughly 60 min and the “Time of peak of regional and global myocardial activity” value ([1]; post injection) was no more than 10 min. The “Myocardial uptake, Apical short axis slice” value ([1]; ~60 min post injection) was 11678±2148 Bq/ml, the “Myocardial uptake, Base short axis slice” value ([1]; ~60 min post injection) was 11284±2844 Bq/ml and the “Myocardial uptake, Mid short axis slice” value ([1]; ~60 min post injection) was 11898±2047 Bq/ml. The “Regional myocardial uptake, Anterior sector” value ([1]; ~60 min post injection) was 11592±2474 Bq/ml, the “Regional myocardial uptake, Inferior sector” value ([1]; ~60 min post injection) was 11818±1991 Bq/ml and the “Regional myocardial uptake, Lateral sector” value ([1]; ~60 min post injection) was 11424±2439 Bq/ml. The “Regional myocardial uptake, Septal sector” value ([1]; ~60 min post injection) was 11647±2829 Bq/ml, the “Maximum administered dose that does not exceed 10 mSv effective dose” value ([2]; based on average values) was 14 mCi and the “Maximum dose that may be administered to a human without exceeding 50 mSv (5 rem) to the urinary bladder” value ([2]; based on average values) was 12 mCi. The “Mean effective dose as defined in ICRP 60” value [2, 10] was 0.070±0.0059 rem/mCi, the “Mean whole body dose estimate” value [2, 10] was 0.044±0.00031 rem/mCi and the “Predicted human radiation dose estimate, adrenals” value [2, 10] was 0.14±0.027 rem/mCi. The “Predicted human radiation dose estimate, heart wall” value [2, 10] was 0.085±0.014 rem/mCi, the “Predicted human radiation dose estimate, kidneys” value [2, 10] was 0.15±0.088 rem/mCi and the “Predicted human radiation dose estimate, osteogenic cells” value [2, 10] was 0.084±0.0048 rem/mCi. For the same molecule, the “Predicted human radiation dose estimate, red bone marrow” value [2, 10] was 0.083±0.0099 rem/mCi, the “Predicted human radiation dose estimate, urinary bladder wall” value ([2]; estimated from cynomolgus monkey PET, OLINDA/EXM) was 0.41±0.089 rem/mCi and the “Vmax (uptake kinetics)” value ([3]; SH-SY5Y cells) was 5.18±1.23 pmol/min/million cells. The “Uptake in SH-SY5Y cells in presence of desipramine, a selective NET inhibitor” value ([3]; SH-SY5Y human neuroblastoma cell line) was “inhibited by desipramine”, the Heart uptake [4, 11] was 2.36±0.16 % ID/g and the Heart uptake [4, 12] was 2.17±0.12 % ID/g. The Heart uptake [5, 11] was 0.25±0.03 % ID/g, the Heart uptake [5, 12] was 0.28±0.03 % ID/g and the “Decrease of radioactivity in the heart by desipramine pretreatment (cardiac imaging)” value [6] was 68%. For the same molecule, the “Innervated region (myocardial area with radioactivity ≥50% maximum)” value ([7]; phenol RCSD rabbits, 2 weeks post surgery) was 12245±905 voxels, the “Innervated region (myocardial area with radioactivity ≥50% maximum)” value ([7]; phenol RCSD rabbits, 12 weeks) was 16812±503 voxels and the “Innervated region (myocardial area with radioactivity ≥50% maximum)” value ([7]; sham-denervated rabbits) was 20702±2190 voxels. It also gave a Ki ([8]; Example 25, cell membranes over-expressing the human NET) of 5.16 ± 0.93 µM, a Ki ([8]; Example 27, ^19F cold analog or NE vs ^3H-desmethylimipramine, membrane overexpressing human NET) of 5.2 ± 1.1 µM and a Cell uptake [9] of 26±2%.
